Experimental data from publication PMC7582905, “Effect of Disulfide Cyclization of Ultrashort Cationic Lipopeptides on Antimicrobial Activity and Cytotoxicity” (International Journal of Molecular Sciences, 2020).
Values after ≈ are worked out from the molar mass of the structure shown. Where a SMILES comes first, the peptide text is derived from it. Bridges are numbered along the chain shown (N, C = ends). The star is where a group is joined. Palmitoyl = CCCCCCCCCCCCCCCC(=O)*

Legend:
[1] = RP-HPLC determination of peptide hydrophobicity; format: physicochemical; details: 0.1% TFA; for reduced retention time t’R: RP-HPLC retention as measure of hydrophobicity, Waters X-Bridge Shield RP-18 3.0 × 100 mm, 3.5 μm, linear 20–65% acetonitrile in water over 30 min, 0.5 mL/min, 25.0 °C, UV 214 nm, 1 g/L, triplicate; for ∆tR: tR of cyclic analog − tR of parent lipopeptide, RP-HPLC, RP-18, 20–65% acetonitrile over 30 min
Method: The peptides were analyzed by RP-HPLC to determine relative hydrophobicity vs. retention time of each compound. In general, more hydrophobic lipopeptides will elute later than hydrophilic ones. Using this simple rule enables comparison of hydrophobicity by reduced retention times (t’R) and differences in retention time between the cyclic analog and its linear parent lipopeptide (Table 1). It can be deduced that the presence of cystine moiety has led to increased hydrophobicity. All cyclic lipopeptides are more hydrophobic than their linear counterparts but the effect of disulfide cyclization on retention is different in each pair. The highest increase in retention was noticed for the shortest lipopeptides L1 (C16-KKK-NH2) and C1 (C16-CKKKC-NH2). The differences between lipopeptides with one arginine residue indicate that its position is crucial for retention and therefore hydrophobicity. To learn how the arginine position affects hydrophobicity, the retention time of compound L2 (C16-KKKK-NH2) or C2 (C16-CKKKKC-NH2) was subtracted from that of the lipopeptides with one arginine residue, linear (L3, L4, L5, L6) or cyclic (C3, C4, C5, C6), respectively. In Figure 2 the effect of arginine position on retention time is related to unsubstituted lipopeptide.
To determine peptide hydrophobicity, a Waters Alliance e2695 system with a Waters 2998 PDA Detector (software-Empower 3, Waters, Milford, MA, USA) was used. All analyses were carried out on a Waters X-Bridge Shield RP-18 column (3.0 × 100 mm, 3.5 μm particle size, 130 Å pore size). The Shield Technology column with embedded polar groups was used to minimize interactions of unreacted silanol groups with basic lipopeptides. The peptides were dissolved in water (0.1% TFA, v/v) up to a concentration of 1 g/L. UV detection at 214 nm was used, and samples (10 μL) were eluted with a linear 20–65% acetonitrile gradient in deionized water over 30 min at 25.0 ± 0.1 °C. The mobile phase flow rate was 0.5 mL/min. Both eluents contained 0.1% (v/v) of TFA. Each peptide sample was analyzed in triplicate. Maximum standard deviation and coefficient of variation were 0.042 and 0.25%, respectively.

[2] = test system: Candida glabrata ATCC 15126; format: cell-based; details: ATCC 15126, 24 h
Method: (§1) The Staphylococcus aureus ATCC 25923, Staphylococcus epidermidis ATCC 14990, Escherichia coli ATCC 25922, Pseudomonas aeruginosa ATCC 9027, Candida albicans ATCC 10231, Candida glabrata ATCC 15126, Candida lipolytica PCM 2680-FY, and Candida tropicalis PCM 2709-FY strains were acquired from the Polish Collection of Microorganisms (PCM, Polish Academy of Sciences, Wrocław, Poland) and from the American Type Culture Collection (ATCC). All the strains were stored at −80 °C in Roti-Store cryo vials and before the tests were transferred into fresh Mueller–Hinton broth (MHB, Biocorp, Warsaw, Poland) for bacteria or RPMI-1640 (Sigma-Aldrich, Steinheim, Germany) for fungi and incubated for 24 h at 37 °C. Then, the cultures were seeded on Mueller–Hinton agar (BioMaxima, Lublin, Poland) or Sabouraud dextrose agar (SDA, BioMaxima, Lublin, Poland) plates, respectively, and incubated as just mentioned. These agar cultures were used for further microbiological assays. Cell densities for all assays were adjusted spectrophotometrically (Multiskan GO Microplate Spectrophotometer, Thermo Fisher Scientific, Vantaa, Finland) at 600 and 660 nm for bacteria and fungi, respectively.
(§2) The MICs were determined by broth microdilution method according to the Clinical and Laboratory Standard Institute guidelines For this purpose, initial inoculums of bacteria (5 × 10^5 CFU/mL) in MHB and yeasts (2 × 10^3 CFU/mL) in RPMI-1640 with 2% D-glucose were exposed to the ranging concentration of lipopeptides (0.5–256 μg/mL) and incubated at 37 °C for 18 h and 24 h, respectively. The experiments were conducted on 96-well microtiter polystyrene plates. The growth was assessed visually after incubation and the MIC was assumed as the lowest peptide concentration at which a noticeable growth of microorganisms was inhibited. All experiments were conducted in triplicate.

[3] = test system: Candida lipolytica PCM 2680-FY; format: cell-based; details: 24 h
Method: as §1, §2

[4] = test system: Candida tropicalis PCM 2709-FY; format: cell-based; details: PCM 2709-FY, 24 h
Method: as §1, §2

[5] = test system: Escherichia coli ATCC 25922; format: cell-based; details: ATCC 25922, 18 h
Method: as §1, §2

[6] = test system: Candida albicans ATCC 10231; format: cell-based; details: ATCC 10231, 24 h
Method: as §1
(§3) MBECs were determined on 96-well polystyrene flat-bottom plates. For this purpose, 24 h cultures of microorganisms were diluted to obtain final density 5.0 × 10^5 CFU/mL and 2.0 × 10^5 CFU/mL of bacteria and fungi, respectively. Briefly, 100 µL of cell suspension was added into the test plates. After 24 h of incubation at 37 °C the wells were rinsed three times with a phosphate buffer saline (PBS, pH 7.4) to remove non-adherent cells. Subsequently, 100 μL of the test compounds in concentration range (0.5–256 μg/mL) were added to each well. After 24 h of incubation at 37 °C, 20 μL of a cell viability reagent was added (resazurin, 4 g/L; Sigma Aldrich, St. Louis, MO, USA). The MBEC was read after 1 h. The determined values were recorded as the lowest concentration at which the reduction of resazurin (from blue to pink) was lower or equal to 10 ± 0.5% as compared to the positive (100%) and negative (0%) controls. The reduction was monitored by measuring absorbance at 570 nm (reduced) and 600 nm (oxidized) using a microplate spectrophotometer (Multiskan GO Microplate Spectrophotometer, Thermo Fisher Scientific, Vantaa, Finland). All experiments were conducted in triplicate.

[7] = test system: Candida glabrata ATCC 15126; format: cell-based; details: ATCC 15126, 24 h; remark: listed apart in the source
Method: as §1, §3

[8] = test system: Candida lipolytica PCM 2680-FY; format: cell-based; details: 24 h; remark: listed apart in the source
Method: as §1, §3

[9] = test system: Candida tropicalis PCM 2709-FY; format: cell-based; details: PCM 2709-FY, 24 h; remark: listed apart in the source
Method: as §1, §3

[10] = test system: Escherichia coli ATCC 25922; format: cell-based; details: ATCC 25922, 24 h
Method: as §1, §3

[11] = test system: Pseudomonas aeruginosa ATCC 9027; format: cell-based; details: ATCC 9027, 24 h
Method: as §1, §3

[12] = test system: Staphylococcus epidermidis ATCC 14990; format: cell-based; details: ATCC 14990, 24 h
Method: as §1, §3

| SMILES | reduced retention time t’R [1] [min] | MIC C. glabrata [2] [µg/mL] | MIC C. lipolytica [3] [µg/mL] | MIC C. tropicalis [4] [µg/mL] | MIC E. coli [5] [µg/mL] | MBEC C. albicans [6] [µg/mL] | MBEC C. glabrata [7] [µg/mL] | MBEC C. lipolytica [8] [µg/mL] | MBEC C. tropicalis [9] [µg/mL] | MBEC E. coli [10] [µg/mL] | MBEC P. aeruginosa [11] [µg/mL] | MBEC S. epidermidis [12] [µg/mL] | ∆tR [1] |
| --- | --- | --- | --- | --- | --- | --- | --- | --- | --- | --- | --- | --- | --- |
| CCCCCCCCCCCCCCCC(=O)N[C@@H](CCCCN)C(=O)N[C@@H](CCCNC(=N)N)C(=O)N[C@@H](CCCCN)C(=O)N[C@@H](CCCCN)C(N)=O [L4, C16-KRKK-NH2] (Palmitoyl-KRKK-NH2) | 15.18 | 32 (≈ 40.2 µM) | 1 (≈ 1.26 µM) | 2 (≈ 2.51 µM) | 8 (≈ 10 µM) | 128 | 128 | 32 | 64 | 64 | >256 | 32 | – |
| CCCCCCCCCCCCCCCC(=O)N[C@H]1CSSC[C@@H](C(N)=O)NC(=O)[C@H](CCCCN)NC(=O)[C@H](CCCCN)NC(=O)[C@H](CCCNC(=N)N)NC(=O)[C@H](CCCCN)NC1=O [C4, C16-CKRKKC-NH2] (Palmitoyl-CKRKKC-NH2; disulfide 1-6) | 16.10 | 4 (≈ 4 µM) | 1 (≈ 1 µM) | 2 (≈ 2 µM) | 32 (≈ 32 µM) | 32 | 64 | 16 | 32 | 64 | >256 | 32 | +0.92 min |
| CCCCCCCCCCCCCCCC(=O)N[C@@H](CCCCN)C(=O)N[C@@H](CCCCN)C(=O)N[C@@H](CCCCN)C(N)=O [L1, C16-KKK-NH2] | 16.14 | 32 (≈ 50 µM) | 16 (≈ 25 µM) | 8 (≈ 12.5 µM) | 16 (≈ 25 µM) | 256 | 256 | 64 | 128 | 64 | 128 | 32 | – |
| CCCCCCCCCCCCCCCC(=O)N[C@@H](CCCCN)C(=O)N[C@@H](CCCCN)C(=O)N[C@@H](CCCCN)C(=O)N[C@@H](CCCCN)C(N)=O [L2, C16-KKKK-NH2] (Palmitoyl-KKKK-NH2) | 14.77 | 64 (≈ 83.3 µM) | 8 (≈ 10.4 µM) | 4 (≈ 5.21 µM) | 32 (≈ 41.7 µM) | 256 | 256 | 64 | 128 | 64 | >256 | 32 | – |
| CCCCCCCCCCCCCCCC(=O)N[C@@H](CCCCN)C(=O)N[C@@H](CCCCN)C(=O)N[C@@H](CCCNC(=N)N)C(=O)N[C@@H](CCCCN)C(N)=O [L5, C16-KKRK-NH2] (Palmitoyl-KKRK-NH2) | 15.01 | 64 (≈ 80.4 µM) | 8 (≈ 10 µM) | 8 (≈ 10 µM) | 8 (≈ 10 µM) | 256 | 256 | 64 | 128 | 64 | 256 | 32 | – |
| CCCCCCCCCCCCCCCC(=O)N[C@H]1CSSC[C@@H](C(N)=O)NC(=O)[C@H](CCCCN)NC(=O)[C@H](CCCCN)NC(=O)[C@H](CCCCN)NC1=O [C1, C16-CKKKC-NH2] (Palmitoyl-CKKKC-NH2; disulfide 1-5) | 18.05 | 4 (≈ 4.74 µM) | 4 (≈ 4.74 µM) | 4 (≈ 4.74 µM) | 16 (≈ 19 µM) | 256 | 256 | 64 | 128 | 256 | 256 | 32 | +1.91 min |
| CCCCCCCCCCCCCCCC(=O)N[C@@H](CCCNC(=N)N)C(=O)N[C@@H](CCCNC(=N)N)C(=O)N[C@@H](CCCCN)C(=O)N[C@@H](CCCCN)C(N)=O [L7, C16-RRKK-NH2] (Palmitoyl-RRKK-NH2) | 15.58 | 16 (≈ 19.4 µM) | 8 (≈ 9.71 µM) | 8 (≈ 9.71 µM) | 8 (≈ 9.71 µM) | 64 | 128 | 16 | 64 | 256 | 256 | 64 | – |
| CCCCCCCCCCCCCCCC(=O)N[C@@H](CCCNC(=N)N)C(=O)N[C@@H](CCCCN)C(=O)N[C@@H](CCCCN)C(=O)N[C@@H](CCCCN)C(N)=O [L3, C16-RKKK-NH2] (Palmitoyl-RKKK-NH2) | 15.21 | 64 (≈ 80.4 µM) | 8 (≈ 10 µM) | 8 (≈ 10 µM) | 8 (≈ 10 µM) | 128 | 128 | 32 | 32 | 128 | 256 | 32 | – |
